These results are taken from patent US7182954B1, “Prebiotic oligosaccharides via alternansucrase acceptor reactions” (priority 2003, dated 2007).

The first assay deals with alternansucrase. Nature of the assay: Comparison of acceptor strengths with alternansucrase, relative amount of alternan formed. Particulars: 45 μL 10% (w/v) sucrose, 45 μL 10% (w/v) acceptor, 10 μL alternansucrase, pH 5.4, room temperature; less alternan = stronger acceptor.
`OC[C@H]1O[C@@H](O[C@@H]2[C@@H](CO)OC(O)(CO)[C@H]2O)[C@H](O)[C@@H](O)[C@H]1O` (mixture of isomers) [lactulose]: the “Alternan (Rel. %)” value turned out to be 91 Rel. %.
On the same count and under the same terms, as for `O=CC[C@@H](O)[C@@H](O)[C@H](O)CO` [2-deoxy-D-galactose], the figure is 89 Rel. %.
Same read-out and setting: as for `O=CC[C@@H](O)[C@H](O)[C@H](O)CO` [2-deoxy-D-glucose], the figure is 59 Rel. %; as for `O=CC[C@H](O)[C@H](O)CO` [2-deoxy-D-ribose], 81 Rel. %.
Same read-out and setting: to `O=C[C@H](O)[C@@H](O[C@H]1O[C@H](CO)[C@@H](O)[C@H](O)[C@H]1O)[C@H](O)[C@H](O)CO[C@H]1O[C@H](CO)[C@@H](O)[C@H](O)[C@H]1O` [3′-O-α-D-Glc isomaltose, 3-O-α-D-glucopyranosyl-6-O-α-D-glucopyranosyl-D-glucose] belongs 31 Rel. %.
In the case of `OC[C@H]1O[C@H](OC[C@H]2O[C@H](O[C@H]3O[C@H](CO[C@H]4O[C@H](CO)[C@@H](O)[C@H](O)[C@H]4O)[C@@H](O)[C@H](O)[C@H]3O)[C@H](O)[C@@H](O)[C@@H]2O)[C@H](O)[C@@H](O)[C@@H]1O` [6,6′-di-O-α-D-Glc-trehalose, 6,6′-di-O-α-D-glucopyranosyl-α,α-trehalose], the “Alternan (Rel. %)” value is 54 Rel. %.
Same read-out and setting: as for `OC[C@H]1O[C@H](OC[C@H]2O[C@H](O[C@H]3O[C@H](CO)[C@@H](O)[C@H](O)[C@H]3O)[C@H](O)[C@@H](O)[C@@H]2O)[C@H](O)[C@@H](O)[C@@H]1O` [6-O-α-D-Glc-trehalose, 6-O-α-D-glucopyranosyl-α,α-trehalose], the figure is 56 Rel. %; as for `OC[C@H]1O[C@H](OC[C@H]2O[C@H](OC[C@H]3O[C@H](O[C@H]4[C@H](O)[C@@H](O)C(O)O[C@@H]4CO)[C@H](O)[C@@H](O)[C@@H]3O)[C@H](O)[C@@H](O)[C@@H]2O)[C@H](O)[C@@H](O)[C@@H]1O` (stereo partly drawn) [6″-O-α-D-Glc panose], 36 Rel. %; as for `O=C[C@H](O)[C@H](O)[C@H](O)[C@H](O)CO` [D-allose], 75 Rel. %.
Still for that read-out and setting: as for `O=C[C@@H](O)[C@H](O)[C@H](O)[C@H](O)CO` [D-altrose], the figure is 92 Rel. %; as for `O=C[C@@H](O)[C@H](O)[C@H](O)CO` [D-arabinose], 99 Rel. %.
Still for that read-out and setting: to `O=C(CO)[C@@H](O)[C@H](O)[C@H](O)CO` [D-fructose] belongs 78 Rel. %.
Regarding `O=C[C@H](O)[C@@H](O)[C@@H](O)[C@H](O)CO` [D-galactose], the “Alternan (Rel. %)” value amounted to 83 Rel. %.
As to `O=C[C@@H](O)[C@@H](O)[C@H](O)CO` [D-lyxose], the “Alternan (Rel. %)” value is listed as 99 Rel. %.
The same measure, in the same setting: as for `O=C[C@@H](O)[C@@H](O)[C@H](O)[C@H](O)CO` [D-mannose], the figure is 90 Rel. %; as for `O=C(CO)[C@H](O)[C@H](O)[C@H](O)CO` [D-psicose], 85 Rel. %.
Turning to `C[C@@H](O)[C@@H](O)[C@H](O)[C@@H](O)C=O` [D-quinovose], the “Alternan (Rel. %)” value came out at 61 Rel. %.
Turning to `O=C[C@H](O)[C@H](O)[C@H](O)CO` [D-ribose], the “Alternan (Rel. %)” value is 93 Rel. %.
On the same count and under the same terms, to `O=C(CO)[C@H](O)[C@@H](O)[C@H](O)CO` [D-sorbose] belongs 97 Rel. %; to `O=C(CO)[C@@H](O)[C@@H](O)[C@H](O)CO` [D-tagatose], 65 Rel. %.
On the same count and under the same terms, to `O=C[C@@H](O)[C@@H](O)[C@@H](O)[C@H](O)CO` [D-talose] belongs 77 Rel. %; to `O=C[C@H](O)[C@@H](O)[C@H](O)CO` [D-xylose], 86 Rel. %.
Same read-out and setting: as for `O=C[C@H](O)[C@@H](O)[C@@H](O)CO` [L-arabinose], the figure is 75 Rel. %; as for `C[C@H](O)[C@@H](O)[C@@H](O)[C@H](O)C=O` [L-fucose], 94 Rel. %.
`O=C[C@@H](O)[C@H](O)[C@@H](O)[C@@H](O)CO` [L-glucose]: the “Alternan (Rel. %)” value was 63 Rel. %.
The same measure, in the same setting: to `O=C[C@H](O)[C@H](O)[C@@H](O)CO` [L-lyxose] belongs 92 Rel. %.
With `C[C@H](O)[C@H](O)[C@@H](O)[C@@H](O)C=O` [L-rhamnose], the “Alternan (Rel. %)” value is on record as 96 Rel. %.
The same measure, in the same setting: to `O=C(CO)[C@@H](O)[C@H](O)[C@@H](O)CO` [L-sorbose] belongs 88 Rel. %; to `CC(=O)N[C@H]1C(O)O[C@H](CO)[C@H](O)[C@@H]1O` (stereo partly drawn) [N-acetyl-D-galactosamine], 88 Rel. %.
`CC(=O)N[C@H]1C(O)O[C@H](CO)[C@@H](O)[C@@H]1O` (stereo partly drawn) [N-acetyl-D-glucosamine]: the “Alternan (Rel. %)” value stood at 90 Rel. %.
Same read-out and setting: as for `CC(=O)N[C@@H]1C(O)O[C@H](CO)[C@@H](O)[C@@H]1O` (stereo partly drawn) [N-acetyl-D-mannosamine], the figure is 93 Rel. %.
The same measure, in the same setting: to `O=C[C@H](O)[C@@H](O)[C@H](O[C@@H]1O[C@H](CO)[C@@H](O)[C@H](O)[C@H]1O)[C@H](O)CO` [cellobiose] belongs 72 Rel. %.
Still for that read-out and setting: as for `OC[C@H]1O[C@@H]2OC[C@H]3O[C@H](O[C@@H]4[C@@H](O)[C@@H](OC[C@H]5O[C@H](O[C@H]([C@H]2O)[C@@H]1O)[C@H](O)[C@@H](O)[C@@H]5O)O[C@H](CO)[C@H]4O)[C@H](O)[C@@H](O)[C@@H]3O` [cycloGlc4 (cyclo-alternan), cycloalternan], the figure is 90 Rel. %.
Consider `OC[C@@H](O)[C@H](O)[C@H](O)[C@@H](O)CO` [dulcitol], for which the “Alternan (Rel. %)” value was determined as 101 Rel. %.
On the same count and under the same terms, as for `O=C[C@@H](O)[C@H](O[C@@H]1O[C@H](CO)[C@H](O)[C@H](O)[C@H]1O)[C@H](O)CO` [galactosyl-arabinose, 3-O-β-D-galactopyranosyl-D-arabinose], the figure is 90 Rel. %; as for `OC[C@H]1O[C@@](CO)(O[C@H]2O[C@H](CO[C@@H]3O[C@H](CO)[C@@H](O)[C@H](O)[C@H]3O)[C@@H](O)[C@H](O)[C@H]2O)[C@@H](O)[C@@H]1O` [gentianose], 66 Rel. %; as for `OC[C@H]1O[C@H](OC[C@H]2OC(O)[C@H](O)[C@@H](O)[C@@H]2O)[C@H](O)[C@@H](O)[C@@H]1O` (some centres unmarked) [isomaltose], 44 Rel. %.
For the molecule `OC[C@H]1O[C@H](OC[C@H]2O[C@H](OC[C@H]3OC(O)[C@H](O)[C@@H](O)[C@@H]3O)[C@H](O)[C@@H](O)[C@@H]2O)[C@H](O)[C@@H](O)[C@@H]1O` (some centres unmarked) [isomaltotriose], the “Alternan (Rel. %)” value was 50 Rel. %.
As to `OC[C@H]1O[C@H](O[C@H]2C(O)O[C@H](CO)[C@@H](O)[C@@H]2O)[C@H](O)[C@@H](O)[C@@H]1O` (some centres unmarked) [kojibiose], the “Alternan (Rel. %)” value worked out at 27 Rel. %.
Still for that read-out and setting: to `OC[C@H]1O[C@H](O[C@H]2[C@@H](O[C@H]3C(O)O[C@H](CO)[C@@H](O)[C@@H]3O)O[C@H](CO)[C@@H](O)[C@@H]2O)[C@H](O)[C@@H](O)[C@@H]1O` (some centres unmarked) [kojitriose] belongs 86 Rel. %; to `OC[C@H]1O[C@@H](O[C@H]2[C@H](O)[C@@H](O)C(O)O[C@@H]2CO)[C@H](O)[C@@H](O)[C@H]1O` (some centres unmarked) [lactose], 79 Rel. %.
Same read-out and setting: to `OC[C@H]1O[C@@H](O[C@H]2[C@H](O)[C@@H](CO)OC(O)[C@@H]2O)[C@H](O)[C@@H](O)[C@@H]1O` (some centres unmarked) [laminaribiose] belongs 58 Rel. %.
For the molecule `OC[C@H]1O[C@H](O[C@@H]2COC(O)(CO)[C@@H](O)[C@@H]2O)[C@H](O)[C@@H](O)[C@@H]1O` (some centres unmarked) [leucrose], the “Alternan (Rel. %)” value was 81 Rel. %.
On the same count and under the same terms, as for `OC[C@@H](O)[C@@H](O[C@H]1O[C@H](CO)[C@@H](O)[C@H](O)[C@H]1O)[C@H](O)[C@@H](O)CO` [maltitol], the figure is 18 Rel. %; as for `OC[C@H]1O[C@H](O[C@H]2[C@H](O)[C@@H](O)[C@H](O)O[C@@H]2CO)[C@H](O)[C@@H](O)[C@@H]1O` [maltose], 11 Rel. %; as for `OC[C@@H](O)[C@@H](O)[C@H](O)[C@H](O)CO` [mannitol], 100 Rel. %.
Turning to `OC[C@H]1O[C@@](CO)(O[C@H]2O[C@H](CO)[C@@H](O)[C@H](O)[C@H]2O)[C@@H](O[C@H]2O[C@H](CO)[C@@H](O)[C@H](O)[C@H]2O)[C@@H]1O` [melezitose], the “Alternan (Rel. %)” value turned out to be 90 Rel. %.
On the same count and under the same terms, to `OC[C@H]1O[C@H](OCC2O[C@@H](O)[C@H](O)[C@@H](O)[C@@H]2O)[C@H](O)[C@@H](O)[C@H]1O` (some centres unmarked) [melibiose] belongs 45 Rel. %; to `O[C@H]1[C@H](O)[C@@H](O)[C@H](O)[C@@H](O)[C@H]1O` [myo-inositol], 99 Rel. %.
Same read-out and setting: to `OC[C@H]1O[C@H](O[C@H]2[C@H](O)[C@@H](CO)OC(O)[C@@H]2O)[C@H](O)[C@@H](O)[C@@H]1O` (some centres unmarked) [nigerose] belongs 23 Rel. %; to `OC[C@H]1O[C@H](OC[C@H]2OC(O)(CO)[C@@H](O)[C@@H]2O)[C@H](O)[C@@H](O)[C@@H]1O` (some centres unmarked) [palatinose], 69 Rel. %.
On the same count and under the same terms, as for `OC[C@H]1O[C@H](OC[C@H]2O[C@H](O[C@H]3[C@H](O)[C@@H](O)C(O)O[C@@H]3CO)[C@H](O)[C@@H](O)[C@@H]2O)[C@H](O)[C@@H](O)[C@@H]1O` (some centres unmarked) [panose], the figure is 25 Rel. %.
For the molecule `OC[C@H]1O[C@H](OC[C@H]2O[C@@](CO)(O[C@H]3O[C@H](CO)[C@@H](O)[C@H](O)[C@H]3O)[C@@H](O)[C@@H]2O)[C@H](O)[C@@H](O)[C@H]1O` [planteose], the “Alternan (Rel. %)” value is recorded as 76 Rel. %.

The same assay, now with this note: acceptor added at the same initial level as other disaccharides.
Turning to `OC[C@H]1O[C@H](O[C@@H]2COC(O)(CO)[C@@H](O)[C@@H]2O)[C@H](O)[C@@H](O)[C@@H]1O` (some centres unmarked) [leucrose], the “reduction in the amount of alternan formed” value is reported as 19%.

The same assay, now with this note: text summary of Table I.
For the molecule `OC[C@H]1O[C@H](OC[C@H]2O[C@H](O[C@H]3O[C@H](CO[C@H]4O[C@H](CO)[C@@H](O)[C@H](O)[C@H]4O)[C@@H](O)[C@H](O)[C@H]3O)[C@H](O)[C@@H](O)[C@@H]2O)[C@H](O)[C@@H](O)[C@@H]1O` [6,6′-di-O-α-D-Glc-trehalose, 6,6′-di-O-α-D-glucopyranosyl-α,α-trehalose], the “acceptor strength for alternansucrase, in words” value is recorded as “relatively good acceptors”.
On to `OC[C@H]1O[C@H](OC[C@H]2O[C@H](O[C@H]3O[C@H](CO)[C@@H](O)[C@H](O)[C@H]3O)[C@H](O)[C@@H](O)[C@@H]2O)[C@H](O)[C@@H](O)[C@@H]1O` [6-O-α-D-Glc-trehalose, 6-O-α-D-glucopyranosyl-α,α-trehalose], for which the “acceptor strength for alternansucrase, in words” value was “relatively good acceptors”.
On the same count and under the same terms, as for `OC[C@@H](O)[C@@H](O[C@H]1O[C@H](CO)[C@@H](O)[C@H](O)[C@H]1O)[C@H](O)[C@@H](O)CO` [maltitol], the entry is “excellent acceptor”; as for `OC[C@H]1O[C@H](O[C@H]2[C@H](O)[C@@H](O)[C@H](O)O[C@@H]2CO)[C@H](O)[C@@H](O)[C@@H]1O` [maltose], “excellent acceptor”.
Still for that read-out and setting: as for `OC[C@H]1O[C@H](OCC2O[C@@H](O)[C@H](O)[C@@H](O)[C@@H]2O)[C@H](O)[C@@H](O)[C@H]1O` (some centres unmarked) [melibiose], the entry is “relatively good acceptors”.
